Assay results taken from ChEMBL document CHEMBL3992516, “Synthesis and SAR evaluation of novel thioridazine derivatives active against drug-resistant tuberculosis” (Eur J Med Chem, 2017).
Values after ≈ are worked out from the molar mass of the structure shown.

Tests used:
[1] = test system: Mycobacterium tuberculosis; assay: Antimycobacterial activity against multidrug-resistant Mycobacterium tuberculosis CF104 clinical isolate incubated for 7 days measured 24 hrs post incubation by resazurin microtiter assay; type: functional
[2] = test system: Mycobacterium tuberculosis; assay: Antimycobacterial activity against multidrug-resistant Mycobacterium tuberculosis CF81 clinical isolate incubated for 7 days measured 24 hrs post incubation by resazurin microtiter assay; type: functional

| SMILES | MIC90 [1] | MIC90 [2] |
| --- | --- | --- |
| CN1CCCCC1CCN1c2ccccc2Sc2ccc(Cl)cc21 (configuration not stated) | 16 µg/mL (≈ 44.6 µM) | 12 µg/mL (≈ 33.4 µM) |
| CN1CCCCC1CCn1c2ccccc2c2ccccc21 (configuration not stated) | 48 µg/mL (≈ 164 µM) | 46 µg/mL (≈ 157 µM) |
| c1ccc2c(c1)ccn2CCC1CCCCN1 (configuration not stated) | 10 µg/mL (≈ 43.8 µM) | 4 µg/mL (≈ 17.5 µM) |
| CSc1ccc2c(c1)N(CCCN1CCN(C)CC1)c1ccccc1S2 | 23 µg/mL (≈ 59.6 µM) | 33 µg/mL (≈ 85.6 µM) |
| CN1CCCCC1CCN1c2ccccc2Sc2ccccc21 (configuration not stated) | > 64 µg/mL | 58 µg/mL (≈ 179 µM) |
| c1ccc2c(c1)Sc1ccccc1N2CCC1CCCCN1 (configuration not stated) | > 64 µg/mL | 58 µg/mL (≈ 187 µM) |
| c1ccc2c(c1)ncn2CCC1CCCCN1 (configuration not stated) | > 100 µg/mL | > 100 µg/mL |
| CSc1ccc2c(c1)N(CCC1CCCCN1)c1ccccc1S2 (configuration not stated) | > 100 µg/mL | > 100 µg/mL |
| Clc1ccc2c(c1)N(CCC1CCCCN1)c1ccccc1S2 (configuration not stated) | 19 µg/mL (≈ 55.1 µM) | 11 µg/mL (≈ 31.9 µM) |
| CSc1ccc2c(c1)N(CCCN1CCN(C3C4CC5CC(C4)CC3C5)CC1)c1ccccc1S2 (configuration not stated) | 20 µg/mL (≈ 39.5 µM) | 48 µg/mL (≈ 94.9 µM) |
| CSc1ccc2c(c1)N(C(=O)CN1CCCCC1)c1ccccc1S2 | 72 µg/mL (≈ 194 µM) | > 100 µg/mL |
| CSc1ccc2c(c1)N(CCC1CCCCN1Cc1ccccc1)c1ccccc1S2 (configuration not stated) | 32 µg/mL (≈ 71.6 µM) | 44 µg/mL (≈ 98.5 µM) |
| NNC(=O)c1ccncc1 [ISONIAZID] | > 25 µg/mL | > 25 µg/mL |
| CN1CCN(CCCN2c3ccccc3Sc3ccccc32)CC1 [PERAZINE] | > 100 µg/mL | > 100 µg/mL |
| CO[C@H]1/C=C/O[C@@]2(C)Oc3c(C)c(O)c4c(O)c(c(/C=N/N5CCN(C)CC5)c(O)c4c3C2=O)NC(=O)/C(C)=C\C=C\[C@H](C)[C@H](O)[C@@H](C)[C@@H](O)[C@@H](C)[C@H](OC(C)=O)[C@@H]1C [RIFAMPIN] | > 25 µg/mL | > 25 µg/mL |
| CSc1ccc2c(c1)N(CCC1CCCCN1C)c1ccccc1S2 (configuration not stated) [THIORIDAZINE] | 11 µg/mL (≈ 29.7 µM) | 10 µg/mL (≈ 27 µM) |
